Data as given in patent US10537127B2, “Organic compounds” (GIVAUDAN SA, priority 2013, dated 2020).

Assay: Beef bouillon taste evaluation by a panel of experienced tasters
Settings: 40 ppb dosed to beef bouillon made from bouillon cubes; versus reference bouillon
Protocol: A beef bouillon was prepared using bouillon cubes obtained from a local supermarket.

In the case of O=C(O)CCCCCCCC(=O)NC(Cc1c[nH]c2ccccc12)C(=O)O (stereo not drawn) [Example 1, 9-((1-Carboxy-2-(1H-indol-3-yl)ethyl)amino)-9-oxononanoic acid], the “taste of the bouillon compared with the reference (panel agreement)” value is reported as “more umami, more salty and more full than the reference”.

With O=C(O)CCCCCCCC(=O)N1CCCC1C(=O)O (stereo not drawn) [Example 2, 1-(8-Carboxyoctanoyl)pyrrolidine-2-carboxylic acid] the “taste of the bouillon compared with the reference (panel agreement)” value was “more salt impact, and more umami taste than the reference”.

In the case of O=C(O)CCCCCCCC(=O)NCCCC(=O)O [Example 3, 9-((3-Carboxypropyl)amino)-9-oxononanoic acid], the “taste of the bouillon compared with the reference (panel agreement)” value is reported as “more salty and had more “bite” than the reference”.
